pIC50: −log10 of the molar value.
Legend:
[1] = biological target: T1, AAK1 (Homo sapiens, UniProt Q2M2I8); test: P81 filter plate assay; format: biochemical; conditions: full-length human AAK1, Mu2 substrate
T1 construct: HA; expressed in transfected cells; host or cells: HEK293F

[2] = biological target: T1, AAK1; test: HEK281 cell-based assay (phospho-mu2 Western blot in transfected HEK293F cells); conditions: 3 hours incubation, read-out: CBA IC50
Outline: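 After 3 hours at 37° C. with compound (five 3-fold-spaced concentrations, DMEM+0.5% FBS), transiently transfected HEK293F cells expressing full-length human AAK1 and Flag-tagged mu2 were lysed. mu2 phosphorylation was read by anti-phospho-mu2 immunoblot, normalized against total mu2 by anti-Flag blot.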

T1 sequence (Q2M2I8 1-863 isoform Q2M2I8-2): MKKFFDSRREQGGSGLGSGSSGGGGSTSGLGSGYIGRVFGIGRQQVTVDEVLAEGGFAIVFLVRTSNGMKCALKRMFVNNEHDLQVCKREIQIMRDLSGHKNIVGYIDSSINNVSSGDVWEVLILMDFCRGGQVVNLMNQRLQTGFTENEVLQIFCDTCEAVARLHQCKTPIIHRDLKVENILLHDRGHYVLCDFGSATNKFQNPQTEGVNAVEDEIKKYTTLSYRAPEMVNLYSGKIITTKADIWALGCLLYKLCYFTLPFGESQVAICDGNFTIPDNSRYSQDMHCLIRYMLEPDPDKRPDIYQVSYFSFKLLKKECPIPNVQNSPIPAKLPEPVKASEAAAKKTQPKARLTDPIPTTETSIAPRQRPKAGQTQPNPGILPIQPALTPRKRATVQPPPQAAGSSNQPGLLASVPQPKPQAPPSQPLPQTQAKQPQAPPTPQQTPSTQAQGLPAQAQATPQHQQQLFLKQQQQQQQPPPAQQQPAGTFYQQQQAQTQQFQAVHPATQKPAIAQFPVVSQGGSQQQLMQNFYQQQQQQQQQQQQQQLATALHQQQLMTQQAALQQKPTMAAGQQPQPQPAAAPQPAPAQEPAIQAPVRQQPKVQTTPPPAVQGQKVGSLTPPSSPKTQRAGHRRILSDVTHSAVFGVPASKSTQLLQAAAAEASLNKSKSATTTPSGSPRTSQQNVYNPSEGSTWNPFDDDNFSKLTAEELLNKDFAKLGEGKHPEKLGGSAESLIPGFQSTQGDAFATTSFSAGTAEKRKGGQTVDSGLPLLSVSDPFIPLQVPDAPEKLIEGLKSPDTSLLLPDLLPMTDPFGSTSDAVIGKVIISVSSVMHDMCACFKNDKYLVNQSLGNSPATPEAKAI

Row | pIC50 [1] | pIC50 [2] | Compound
1 | ≥ 8.00 | ≥ 7.00 | CC(C)(C)CC(=O)N1CCC[C@H]1CNc1ccc2ncc(-c3ccncc3)n2n1 [(S)-3,3-dimethyl-1-(2-(((3-(pyridin-4-yl)imidazo[1,2-b]pyridazin-6-yl)amino)methyl)pyrrolidin-1-yl)butan-1-one]
2 | ≥ 8.00 | ≥ 7.00 | CC(C)CC(=O)N1CCC[C@H]1CNc1ccc2ncc(-c3cccc(C#N)c3)n2n1 [(S)-3-(6-(((1-(3-methylbutanoyl)pyrrolidin-2-yl)methyl)amino)imidazo[1,2-b]pyridazin-3-yl)benzonitrile]
3 | ≥ 8.00 | ≥ 7.00 | Cc1cc(-c2cnc3ccc(NC[C@@H]4CCCN4C(=O)CC(C)C)nn23)ccn1 [(S)-3-methyl-1-(2-(((3-(2-methylpyridin-4-yl)imidazo[1,2-b]pyridazin-6-yl)amino)methyl)pyrrolidin-1-yl)butan-1-one]
4 | ≥ 8.00 | ≥ 6.00 | Cc1cccc(-c2cnc3ccc(NC[C@@H]4CCCN4C(=O)CC(C)C)nn23)c1 [(S)-3-methyl-1-(2-(((3-(m-tolyl)imidazo[1,2-b]pyridazin-6-yl)amino)methyl)pyrrolidin-1-yl)butan-1-one]
5 | ≥ 8.00 | ≥ 7.00 | CC(C)CC(=O)N1CCC[C@H]1CNc1ccc2ncc(-c3ccccc3)n2n1 [(S)-3-methyl-1-(2-(((3-phenylimidazo[1,2-b]pyridazin-6-yl)amino)methyl)pyrrolidin-1-yl)butan-1-one]
6 | ≥ 8.00 | ≥ 8.00 | CC(C)CC(=O)N1CCC[C@H]1CNc1ccc2ncc(-c3ccc(C#N)cc3)n2n1 [(S)-4-(6-(((1-(3-methylbutanoyl)pyrrolidin-2-yl)methyl)amino)imidazo[1,2-b]pyridazin-3-yl)benzonitrile]
7 | ≥ 8.00 | ≥ 7.00 | CC(C)(C)CCN1C(=O)CC[C@H]1CNc1ccc2ncc(-c3ccc(CN)cc3)n2n1 [(S)-5-(((3-(4-(aminomethyl)phenyl)imidazo[1,2-b]pyridazin-6-yl)amino)methyl)-1-(3,3-dimethylbutyl)pyrrolidin-2-one]
8 | ≥ 8.00 | ≥ 7.00 | CC(C)CCN1C(=O)CC[C@H]1CNc1ccc2ncc(-c3ccc(CN)cc3)n2n1 [(S)-5-(((3-(4-(aminomethyl)phenyl)imidazo[1,2-b]pyridazin-6-yl)amino)methyl)-1-isopentylpyrrolidin-2-one]
9 | ≥ 8.00 | ≥ 7.00 | CC(C)(C)CCN1C(=O)CC[C@H]1CNc1ccc2ncc(Br)n2n1 [(S)-5-(((3-bromoimidazo[1,2-b]pyridazin-6-yl)amino)methyl)-1-(3,3-dimethylbutyl)pyrrolidin-2-one]
10 | ≥ 8.00 | ≥ 7.00 | COc1ccccc1-c1cnc2ccc(NC[C@@H]3CCCN3C(=O)NC(C)(C)C)nn12 [(S)-N-(tert-butyl)-2-(((3-(2-methoxyphenyl)imidazo[1,2-b]pyridazin-6-yl)amino)methyl)pyrrolidine-1-carboxamide]
11 | ≥ 8.00 | ≥ 7.00 | CC(C)(C)NC(=O)N1CCC[C@H]1CNc1ccc2ncc(-c3ccncc3)n2n1 [(S)-N-(tert-butyl)-2-(((3-(pyridin-4-yl)imidazo[1,2-b]pyridazin-6-yl)amino)methyl)pyrrolidine-1-carboxamide]
12 | ≥ 8.00 | ≥ 7.00 | CC(C)(C)NC(=O)N1CCC[C@H]1CNc1ccc2ncc(-c3ccccc3)n2n1 [(S)-N-(tert-butyl)-2-(((3-phenylimidazo[1,2-b]pyridazin-6-yl)amino)methyl)pyrrolidine-1-carboxamide]
13 | ≥ 8.00 | ≥ 7.00 | CC(C)(C)CNC(=O)N1CCC[C@H]1CNc1ccc2ncc(-c3ccccc3)n2n1 [(S)-N-neopentyl-2-(((3-phenylimidazo[1,2-b]pyridazin-6-yl)amino)methyl)pyrrolidine-1-carboxamide]
14 | ≥ 8.00 | ≥ 8.00 | O=C(OC1CCC1)N1CCC[C@H]1CNc1ccc2ncc(-c3ccncc3)n2n1 [(S)-cyclobutyl 2-(((3-(pyridin-4-yl)imidazo[1,2-b]pyridazin-6-yl)amino)methyl)pyrrolidine-1-carboxylate]
15 | ≥ 8.00 | ≥ 8.00 | NCc1ccc(-c2cnc3ccc(NC[C@@H]4CCCN4C(=O)OC4CCCC4)nn23)cc1 [(S)-cyclopentyl 2-(((3-(4-(aminomethyl)phenyl)imidazo[1,2-b]pyridazin-6-yl)amino)methyl)pyrrolidine-1-carboxylate]
16 | ≥ 8.00 | ≥ 8.00 | COc1ncccc1-c1cnc2ccc(NC[C@@H]3CCCN3C(=O)OC(C)C)nn12 [(S)-isopropyl 2-(((3-(2-methoxypyridin-3-yl)imidazo[1,2-b]pyridazin-6-yl)amino)methyl)pyrrolidine-1-carboxylate]

Second part, the molecule before the results:

Row | Compound | pIC50 [1] | pIC50 [2]
17 | COc1ccccc1-c1cnc2ccc(NC[C@@H]3CCCN3C(=O)NC3CCCC3)nn12 [(S)-N-cyclopentyl-2-(((3-(2-methoxyphenyl)imidazo[1,2-b]pyridazin-6-yl)amino)methyl)pyrrolidine-1-carboxamide] | ≥ 8.00 | ≥ 6.00
18 | CC(C)(C)OC(=O)N1CCC[C@H]1CNc1ccc2ncc(C(F)F)n2n1 [(S)-Tert-butyl 2-(((3-(difluoromethyl)imidazo[1,2-b]pyridazin-6-yl)amino)methyl)pyrrolidine-1-carboxylate] | ≥ 8.00 | ≥ 6.00
19 | COc1ccccc1-c1cnc2ccc(NC[C@@H]3CCCN3C(=O)OC3CCC3)nn12 [(S)-cyclobutyl 2-(((3-(2-methoxyphenyl)imidazo[1,2-b]pyridazin-6-yl)amino)methyl)pyrrolidine-1-carboxylate] | ≥ 8.00 | ≥ 7.00
20 | O=C(OC1CCC1)N1CCC[C@H]1CNc1ccc2ncc(Br)n2n1 [(S)-cyclobutyl 2-(((3-bromoimidazo[1,2-b]pyridazin-6-yl)amino)methyl)pyrrolidine-1-carboxylate] | ≥ 8.00 | ≥ 7.00
21 | O=C(OC1CCCC1)N1CCC[C@H]1CNc1ccc2ncc(-c3ccncc3)n2n1 [(S)-cyclopentyl 2-(((3-(pyridin-4-yl)imidazo[1,2-b]pyridazin-6-yl)amino)methyl)pyrrolidine-1-carboxylate] | ≥ 8.00 | ≥ 8.00
22 | O=C(OC1CCCC1)N1CCC[C@H]1CNc1ccc2ncc(Br)n2n1 [(S)-cyclopentyl 2-(((3-bromoimidazo[1,2-b]pyridazin-6-yl)amino)methyl)pyrrolidine-1-carboxylate] | ≥ 8.00 | ≥ 8.00
23 | O=C(OC1CCCC1)N1CCC[C@H]1CNc1ccc2ncc(-c3ccccc3)n2n1 [(S)-cyclopentyl 2-(((3-phenylimidazo[1,2-b]pyridazin-6-yl)amino)methyl)pyrrolidine-1-carboxylate] | ≥ 8.00 | ≥ 7.00
24 | [2H]C([2H])([2H])Oc1ncccc1-c1cnc2ccc(N3CC[C@H](N(C)C(=O)OCC)C3)nn12 [(S)-ethyl (1-(3-(2-(trideuteromethoxy)pyridin-3-yl)imidazo[1,2-b]pyridazin-6-yl)pyrrolidin-3-yl)(methyl)carbamate] | ≥ 8.00 | ≥ 7.00
25 | CCOC(=O)N(C)[C@H]1CCN(c2ccc3ncc(-c4cc(C)cnc4OC)n3n2)C1 [(S)-ethyl (1-(3-(2-methoxy-5-methylpyridin-3-yl)imidazo[1,2-b]pyridazin-6-yl)pyrrolidin-3-yl)(methyl)carbamate] | ≥ 8.00 | ≥ 7.00
26 | CCOC(=O)N(C)[C@H]1CCN(c2ccc3ncc(-c4cccnc4OC)n3n2)C1 [(S)-ethyl (1-(3-(2-methoxypyridin-3-yl)imidazo[1,2-b]pyridazin-6-yl)pyrrolidin-3-yl)(methyl)carbamate] | ≥ 8.00 | ≥ 7.00
27 | CCOC(=O)N(C)[C@H]1CCN(c2ccc3ncc(-c4cc(F)ccc4OC)n3n2)C1 [(S)-ethyl (1-(3-(5-fluoro-2-methoxyphenyl)imidazo[1,2-b]pyridazin-6-yl)pyrrolidin-3-yl)(methyl)carbamate] | ≥ 8.00 | ≥ 7.00
28 | CCOC(=O)N(C)[C@H]1CCN(c2ccc3ncc(-c4cc(F)cnc4OC)n3n2)C1 [(S)-ethyl (1-(3-(5-fluoro-2-methoxypyridin-3-yl)imidazo[1,2-b]pyridazin-6-yl)pyrrolidin-3-yl)(methyl)carbamate] | ≥ 8.00 | ≥ 7.00
29 | COc1ncccc1-c1cnc2ccc(N(C)C[C@@H]3CCCN3C(=O)OC(C)C)nn12 [(S)-isopropyl 2-(((3-(2-methoxypyridin-3-yl)imidazo[1,2-b]pyridazin-6-yl)(methyl)amino)methyl)pyrrolidine-1-carboxylate] | ≥ 8.00 | ≥ 8.00
30 | CC(C)OC(=O)N1CCC[C@H]1CNc1ccc2ncc(C#N)n2n1 [(S)-isopropyl 2-(((3-cyanoimidazo[1,2-b]pyridazin-6-yl)amino)methyl)pyrrolidine-1-carboxylate] | ≥ 8.00 | ≥ 6.00
31 | COc1ccc(-c2cnc3ccc(N4CC[C@H](N(C)C(=O)OC(C)C)C4)nn23)c(OC)n1 [(S)-isopropyl (1-(3-(2,6-dimethoxypyridin-3-yl)imidazo[1,2-b]pyridazin-6-yl)pyrrolidin-3-yl)(methyl)carbamate] | ≥ 8.00 | ≥ 7.00
32 | [2H]C([2H])([2H])Oc1ncccc1-c1cnc2ccc(N3CC[C@H](N(C)C(=O)OC(C)C)C3)nn12 [(S)-isopropyl (1-(3-(2-(tri-deuteromethoxy)pyridin-3-yl)imidazo[1,2-b]pyridazin-6-yl)pyrrolidin-3-yl)(methyl)carbamate] | ≥ 8.00 | ≥ 8.00
33 | COc1ncc(C)cc1-c1cnc2ccc(N3CC[C@H](N(C)C(=O)OC(C)C)C3)nn12 [(S)-isopropyl (1-(3-(2-methoxy-5-methylpyridin-3-yl)imidazo[1,2-b]pyridazin-6-yl)pyrrolidin-3-yl)(methyl)carbamate] | ≥ 8.00 | ≥ 7.00
34 | COc1cc(-c2cnc3ccc(N4CC[C@H](N(C)C(=O)OC(C)C)C4)nn23)c(OC)nn1 [(S)-isopropyl (1-(3-(3,6-dimethoxypyridazin-4-yl)imidazo[1,2-b]pyridazin-6-yl)pyrrolidin-3-yl)(methyl)carbamate] | ≥ 8.00 | ≥ 7.00

— patent US8969565B2, “Imidazo[1,2-b]pyridazine-based compounds, compositions comprising them, and methods of their use” (Lexicon Pharmaceuticals, Inc., priority 2012, dated 2015)
